Results taken from article PMC7340446, “Optimization of PTH/PTHrP Hybrid Peptides to Derive a Long‐Acting PTH Analog (LA‐PTH)” (JBMR Plus, 2020).
Where no end group is shown, it is not given here.

How the values were obtained:
[1] = system: TPTX rats; conditions: orally available agonist; cited from earlier work
Excerpt: The low solubility observed for M‐PTH/PTHrP and related analogs containing the C‐terminal PTHrP(15–36) sequence when prepared at high concentrations in aqueous neutral buffer led us to explore amino acid substitutions that would improve solubility yet preserve activity on the PTHR1. […] The resulting analog, [Ala^1,3,12,18,22,Gln^10,Arg^11,Trp^14,Lys^26]‐PTH(1‐14)/PTHrP(15–36), ...

[2] = Peptide solubility in aqueous buffers of neutral pH; format: physicochemical; conditions: lyophilized peptide reconstituted at 1.5 mg/cc in PBS pH 7.4 or 10‐mM acetic acid, 24 hours room temperature, centrifuged, supernatant by BCA protein assay; versus M‐PTH(1‐14)/PTHrP(15‐36)
[3] = Pharmacokinetics in normal rats, i.v., plasma peptide by ELISA; format: in vivo, rat; conditions: i.v. 10 nmol/kg, plasma with protease inhibitors, n = 4 (M‐PTH/PTHrP) or 3 (PTH(1–34))
Procedure: For pharmacokinetic studies, plasma samples were prepared in the presence of protease inhibitors (aprotinin, leupeptin, EDTA). Plasma levels of PTH(1–34) were assessed by ELISA assay (Human PTH(1–34) Specific ELISA Kit; Immutopics Inc, San Clemente, CA, USA), and plasma levels of M‐PTH/PTHrP were assessed by ELISA assay (PTH‐RP 1–34 Human Enzyme Immunoassay Kit; Peninsula Laboratories International, San Carlos CA, USA) using M‐PTH/PTHrP peptides as standard solutions.
Figure 3 Pharmacodynamic and pharmacokinetic profiles of M‐PTH/PTHrP and PTH(1–34) in rats. (A) Effects of M‐PTH/PTHrP and PTH(1–34) on blood ionized Ca in TPTX rats by i.v. injection. M‐PTH/PTHrP and PTH(1–34) were injected intravenously in TPTX rats at the indicated doses, and blood samples were collected from the tail vein measured for ionized Ca; data are means ± SE; n = 5 or 3 (PTH(1–34)). *p < 0.05, **p < 0.01, ***p < 0.005 M‐PTH/PTHrP or PTH(1–34) versus TPTX‐vehicle. […] M‐PTH/PTHrP and PTH(1–34) each at a dose of 10 nmol/kg were i.v. administered, and blood samples were collected from the jugular vein in the presence of proteinase inhibitors (Aprotinin, Leupeptin, and EDTA) and the plasma samples were assessed for peptide concentration using a hPTHrP(1–34)‐targeted EIA for M‐PTH/PTHrP and an hPTH(1–34)‐targeted ELISA for PTH(1–34). […]

[4] = system: amino‐terminal ECD portion of the PTH receptor; conditions: cited from earlier work
Excerpt: In this study, we systematically explored a series of hybrid molecules composed of PTH and PTHrP.

Molecule: Cc1cc(N2C(=O)NC(=O)C2(C)C)cc(C)c1CCS(=O)(=O)N1CCC2(CC1)N=C(c1ccc(OC(F)(F)F)cc1)NC2=O [PCO371]
- Effect on sCa and sPi levels [1]: restore sCa and lower sPi levels

Molecule: AVAEIQLMHQRAKWIQDARRRAFLHKLIAEIHTAEI [LA‐PTH, [Ala^1,3,12,Gln^10,Arg^11,Trp^14]PTH(1‐14)/[Ala^18,22,Lys^26]PTHrP(15‐36)COOH]
- Peptide solubility in PBS relative to 10 mM acetic acid [2]: improved peptide solubility

Molecule: CC[C@H](C)[C@H](NC(=O)[C@H](CCC(=O)O)NC(=O)[C@H](CO)NC(=O)[C@@H](NC(=O)[C@@H](N)CO)C(C)C)C(=O)N[C@@H](CCC(N)=O)C(=O)N[C@@H](CC(C)C)C(=O)N[C@@H](CCSC)C(=O)N[C@@H](Cc1cnc[nH]1)C(=O)N[C@@H](CC(N)=O)C(=O)N[C@@H](CC(C)C)C(=O)NCC(=O)N[C@@H](CCCCN)C(=O)N[C@@H](Cc1cnc[nH]1)C(=O)N[C@@H](CC(C)C)C(=O)N[C@@H](CC(N)=O)C(=O)N[C@@H](CO)C(=O)N[C@@H](CCSC)C(=O)N[C@@H](CCC(=O)O)C(=O)N[C@@H](CCCN=C(N)N)C(=O)N[C@H](C(=O)N[C@@H](CCC(=O)O)C(=O)N[C@@H](Cc1c[nH]c2ccccc12)C(=O)N[C@@H](CC(C)C)C(=O)N[C@@H](CCCN=C(N)N)C(=O)N[C@@H](CCCCN)C(=O)N[C@@H](CCCCN)C(=O)N[C@@H](CC(C)C)C(=O)N[C@@H](CCC(N)=O)C(=O)N[C@@H](CC(=O)O)C(=O)N[C@H](C(=O)N[C@@H](Cc1cnc[nH]1)C(=O)N[C@@H](CC(N)=O)C(=O)N[C@@H](Cc1ccccc1)C(=O)O)C(C)C)C(C)C [PTH(1‐34), reference compound]
- Time by which plasma concentration declined to the lowest detection level [3]: ≤ 60 min

Molecule: PTHrP(15–36): C‐terminal PTHrP fragment binding the receptor ECD (IQDLRRRFFLHHLIAEIHTAEI; Parathyroid hormone-related protein; UniProt P12272 51-72, looked up, fragment)
- Affinity for the ECD relative to the PTH(15–34) fragment [4]: approximately twofold higher affinity
